The source of these data is ChEMBL document CHEMBL4368892, “Isatin and its derivatives: a survey of recent syntheses, reactions, and applications” (Medchemcomm, 2019).

The target in one assay is Histone deacetylase. Put plainly: Inhibition of HDAC (unknown origin). The format is protein assay, Homo sapiens.
Consider `O=C(CNC(=S)N/N=C1\C(=O)Nc2ccc(Cl)cc21)NO`, for which the half-inhibitory concentration (IC50) was 0.97 µM.

The test system of another assay is LoVo. Put plainly: Antiproliferative activity against human LoVo cells by WST-1 assay. The format is functional, cell-based. Background: Formazan colour is commonly taken as a measure of viable cells.
`O=C(CSc1nc2ccccc2c(=O)n1CCc1ccccc1)N/N=C1\C(=O)Nc2ccc(Cl)cc21` registered a concentration for half-maximal inhibition (IC50) of 9.91 to 17.9 µM.

`Cc1ccc2nc(SCC(=O)N/N=C3\C(=O)Nc4ccc([N+](=O)[O-])cc43)n(-c3ccccc3)c(=O)c2c1`: the IC50 was 9.91 to 17.9 µM.

Turning to `O=C(CSc1nc2ccccc2c(=O)n1-c1ccccc1)N/N=C1\C(=O)Nc2ccc(Cl)cc21`, the half-inhibitory concentration (IC50) lay in the range of 9.91 to 17.9 µM.

Molecule `Cc1ccc2nc(SCC(=O)N/N=C3\C(=O)Nc4ccccc43)n(Cc3ccccc3)c(=O)c2c1` showed an IC50 of 9.91 to 17.9 µM.

In turn, `Cc1ccc2nc(SCC(=O)N/N=C3\C(=O)Nc4ccc(F)cc43)n(-c3ccccc3)c(=O)c2c1` registered an IC50 of 9.91 to 17.9 µM.

On to `O=C(CSc1nc2ccccc2c(=O)n1CCc1ccccc1)N/N=C1\C(=O)Nc2ccccc21`, for which the IC50 lay in the range of 9.91 to 17.9 µM.

In the case of `Cc1ccc2nc(SCC(=O)N/N=C3\C(=O)Nc4ccc([N+](=O)[O-])cc43)n(Cc3ccccc3)c(=O)c2c1`, the concentration for half-maximal inhibition (IC50) was in the range of 9.91 to 17.9 µM.

Molecule `O=C(CSc1nc2ccccc2c(=O)n1Cc1ccccc1)N/N=C1\C(=O)Nc2ccc([N+](=O)[O-])cc21` returned a 50% inhibitory concentration (IC50) of 9.91 to 17.9 µM.

On to `Cc1ccc2nc(SCC(=O)N/N=C3\C(=O)Nc4ccc(Cl)cc43)n(-c3ccccc3)c(=O)c2c1`, for which the half-maximal inhibitory concentration (IC50) lay in the range of 9.91 to 17.9 µM.

`Cc1ccc2nc(SCC(=O)N/N=C3\C(=O)Nc4ccc(F)cc43)n(Cc3ccccc3)c(=O)c2c1` gave a half-maximal inhibitory concentration (IC50) of 9.91 to 17.9 µM.

Take `Cc1ccc2nc(SCC(=O)N/N=C3\C(=O)Nc4ccccc43)n(-c3ccccc3)c(=O)c2c1`: the half-maximal inhibitory concentration (IC50) was in the range of 9.91 to 17.9 µM.

In turn, `O=C(CSc1nc2ccccc2c(=O)n1CCc1ccccc1)N/N=C1\C(=O)Nc2ccc(F)cc21` had a 50% inhibitory concentration (IC50) of 9.91 to 17.9 µM.

Turning to `O=C(CSc1nc2ccccc2c(=O)n1-c1ccccc1)N/N=C1\C(=O)Nc2ccc([N+](=O)[O-])cc21`, the IC50 lay in the range of 9.91 to 17.9 µM.

Take `Cc1ccc2nc(SCC(=O)N/N=C3\C(=O)Nc4ccc(Cl)cc43)n(Cc3ccccc3)c(=O)c2c1`: the half-maximal inhibitory concentration (IC50) was 9.91 to 17.9 µM.

The term IC50 denotes the point on the concentration scale where inhibition reaches its midpoint. Higher therefore signals lower potency.
